The compounds below were run against T1, Human KLK1 (Homo sapiens, UniProt P06870) (assay: Determination of the IC50 for KLK1 (fluorogenic substrate H-DVal-Leu-Arg-AFC)). Settings: 37° C.
T1 construct: purchased Callbiochem (Calbiochem)
Type: biochemical
In short: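 Test compound at various concentrations was incubated with human KLK1 and the fluorogenic substrate H-DVal-Leu-Arg-AFC at 37° C. Absorbance change at 410 nm gave the initial reaction rate, from which IC50 was obtained.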

T1 sequence (P06870 25-262): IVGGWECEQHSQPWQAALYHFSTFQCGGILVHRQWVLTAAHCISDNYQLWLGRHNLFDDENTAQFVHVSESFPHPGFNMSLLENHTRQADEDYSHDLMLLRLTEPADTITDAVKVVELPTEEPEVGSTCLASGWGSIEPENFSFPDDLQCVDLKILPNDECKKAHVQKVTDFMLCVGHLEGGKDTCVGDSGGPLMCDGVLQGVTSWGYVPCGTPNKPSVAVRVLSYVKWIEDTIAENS

SMILES	IC50 [nM]
CN(CC(=O)N[C@@H](Cc1ccc(F)c(F)c1)C(=O)NCc1ccc(N)nc1)Cc1ccccc1Cl [Example 165, (S)—N-(6-Amino-pyridin-3-ylmethyl)-2-{2-[(2-chloro-benzyl)-methyl-amino]-acetylamino}-3-(3,4-difluoro-phenyl)-propionamide]	83.5
Nc1ccc(CNC(=O)[C@H](Cc2ccc(Cl)c(Cl)c2)NC(=O)[C@H]2CCCN2Cc2ccccc2)cn1 [Example 7, (R)-1-Benzyl-pyrrolidine-2-carboxylic acid [(S)-1-[(6-amino-pyridin-3-ylmethyl)-carbamoyl]-2-(3,4-dichloro-phenyl)-ethyl]-amide]	10.5
CCC(C)[C@@H](N)C(=O)N[C@@H](CC1CCCC2CCCCC21)C(=O)NCc1c(C)cc(N)nc1C (stereo partly drawn) [Example 208, (R)-2-Amino-3-methyl-pentanoic acid [(S)-1-[(6-amino-2,4-dimethyl-pyridin-3-ylmethyl)-carbamoyl]-2-(decahydro-naphthalen-1-yl)-ethyl]-amide]	32.1
CC(C)[C@@H](C(=O)N[C@@H](Cc1ccc(F)c(F)c1)C(=O)NCc1ccc(N)nc1)N(C)C(C)C [Example 348, (S)—N-[(S)-1-[(6-Amino-pyridin-3-ylmethyl)-carbamoyl]-2-(3,4-difluoro-phenyl)-ethyl]-2-(isopropyl-methyl-amino)-3-methyl-butyramide]	11.1
Cc1nc(N)ccc1CNC(=O)[C@H](Cc1ccc(Cl)c(Cl)c1)NC(=O)c1cc2ccccc2[nH]1 [Example 320, 1H-Indole-2-carboxylic acid [(S)-1-[(6-amino-2-methyl-pyridin-3-ylmethyl)-carbamoyl]-2-(3,4-dichloro-phenyl)-ethyl]-amide]	98.5
Cc1cc(C)c(C(=O)N[C@@H](Cc2ccc(O)cc2)C(=O)NCc2ccc(N)nc2)[nH]1 [Example 247, 3,5-Dimethyl-1H-pyrrole-2-carboxylic acid [(S)-1-[(6-amino-pyridin-3-ylmethyl)-carbamoyl]-2-(4-hydroxy-phenyl)-ethyl]-amide]	200
CCC(C)[C@H](C(=O)N[C@@H](Cc1cccc(Cl)c1)C(=O)NCc1ccc(N)nc1)N(C)C (stereo partly drawn) [Example 405, (R)-2-Dimethylamino-3-methyl-pentanoic acid [(S)-1-[(6-amino-pyridin-3-ylmethyl)-carbamoyl]-2-(3-chloro-phenyl)-ethyl]-amide]	7.1
COc1ccc2[nH]c(C(=O)N[C@@H](Cc3cccc4ccccc34)C(=O)NCc3ccc(N)nc3)cc2c1 [Example 300, 5-Methoxy-1H-indole-2-carboxylic acid {(S)-1-[(6-amino-pyridin-3-ylmethyl)-carbamoyl]-2-naphthalen-1-yl-ethyl}-amide]	7.4
CN[C@@H](Cc1ccccc1)C(=O)N[C@H](Cc1ccc(Cl)c(Cl)c1)C(=O)NCc1ccc(N)nc1C [Example 193, (S)—N-[(R)-1-[(6-Amino-2-methyl-pyridin-3-ylmethyl)-carbamoyl]-2-(3,4-dichloro-phenyl)-ethyl]-2-methylamino-3-phenyl-propionamide]	10.9
CCC(C)C(NC)C(=O)NC(Cc1c(F)c(F)c(F)c(F)c1F)C(=O)NCc1ccc(N)nc1 [Example 50, (R)-3-Methyl-2-methylamino-pentanoic acid {(S)-1-[(6-amino-pyridin-3-ylmethyl)-carbamoyl]-2-pentafluorophenyl-ethyl}-amide]	29.1
Nc1ccc(CNC(=O)[C@H](Cc2cccc3ccccc23)NC(=O)c2cc3cc(F)ccc3[nH]2)cn1 [Example 301, 5-Fluoro-1H-indole-2-carboxylic acid {(S)-1-[(6-amino-pyridin-3-ylmethyl)-carbamoyl]-2-naphthalen-1-yl-ethyl}-amide]	11
NCC(=O)N[C@@H](CC1CCCC2CCCCC21)C(=O)NCc1ccc(N)nc1 (stereo partly drawn) [Example 17, (S)-2-(2-Amino-acetylamino)-N-(6-amino-pyridin-3-ylmethyl)-3-(decahydro-naphthalen-1-yl)-propionamide]	211
Nc1ccc(CNC(=O)[C@H](Cc2ccc(F)cc2)NC(=O)c2cc3cc(F)ccc3[nH]2)cn1 [Example 331, 5-Fluoro-1H-indole-2-carboxylic acid [(S)-1-[(6-amino-pyridin-3-ylmethyl)-carbamoyl]-2-(4-fluoro-phenyl)-ethyl]-amide]	32
Nc1ccc(CNC(=O)[C@H](Cc2ccc(Cl)c(Cl)c2)NC(=O)[C@H]2CC(F)(F)CN2)cn1 [Example 66, (R)-4,4-Difluoro-pyrrolidine-2-carboxylic acid [(S)-1-[(6-amino-pyridin-3-ylmethyl)-carbamoyl]-2-(3,4-dichloro-phenyl)-ethyl]-amide]	20.7
Cc1cc[nH]c1C(=O)N[C@@H](Cc1cccc(F)c1)C(=O)NCc1ccc(N)nc1 [Example 269, 3-Methyl-1H-pyrrole-2-carboxylic acid [(S)-1-[(6-amino-pyridin-3-ylmethyl)-carbamoyl]-2-(3-fluoro-phenyl)-ethyl]-amide]	26.1
CCCN(CCC)CC(=O)N[C@@H](Cc1ccc(F)c(F)c1)C(=O)NCc1ccc(N)nc1 [Example 158, (S)—N-(6-Amino-pyridin-3-ylmethyl)-3-(3,4-difluoro-phenyl)-2-(2-dipropylamino-acetylamino)-propionamide]	114
CCC(C)[C@@H](NC)C(=O)N[C@@H](Cc1ccc(F)c(F)c1)C(=O)NCc1ccc(N)nc1 (single isomer, unassigned) [Example 53]	11.2

These reach a lower IC50. Values come first.

IC50 [nM]	SMILES
1.3	Nc1ccc(CNC(=O)[C@H](Cc2ccc(F)c(F)c2)NC(=O)CN2CCOCC2)cn1 [Example 171, (S)—N-(6-Amino-pyridin-3-ylmethyl)-3-(3,4-difluoro-phenyl)-2-(2-morpholin-4-yl-acetylamino)-propionamide]
3	C[C@@H](C(=O)N[C@@H](Cc1ccc(C(F)(F)F)cc1)C(=O)NCc1ccc(N)nc1)N1CCCCC1 [Example 422, (S)—N-[(S)-1-[(6-Amino-pyridin-3-ylmethyl)-carbamoyl]-2-(4-trifluoromethyl-phenyl)-ethyl]-2-piperidin-1-yl-propionamide]
5.9	Cc1nc(N)ccc1CNC(=O)[C@H](Cc1ccc(F)cc1)NC(=O)[C@H]1CCCN1C [Example 204, (R)-1-Methyl-pyrrolidine-2-carboxylic acid [(S)-1-[(6-amino-2-methyl-pyridin-3-ylmethyl)-carbamoyl]-2-(4-fluoro-phenyl)-ethyl]-amide]
6.5	Cc1cc(C)c(C(=O)N[C@@H](Cc2ccc(F)cc2)C(=O)NCc2ccc(N)nc2C)[nH]1 [Example 285, 3,5-Dimethyl-1H-pyrrole-2-carboxylic acid [(S)-1-[(6-amino-2-methyl-pyridin-3-ylmethyl)-carbamoyl]-2-(4-fluoro-phenyl)-ethyl]-amide]
6.7	CN[C@@H](C)C(=O)N[C@@H](Cc1ccc(F)cc1)C(=O)NCc1ccc(N)nc1 [Example 88, (S)—N-[(S)-1-[(6-Amino-pyridin-3-ylmethyl)-carbamoyl]-2-(4-fluoro-phenyl)-ethyl]-2-methylamino-propionamide]
1.7	Cc1nc(N)ccc1CNC(=O)[C@H](Cc1ccc(F)c(F)c1)NC(=O)CN1C(C)CCCC1C (stereo partly drawn) [Example 429, (S)—N-(6-Amino-2-methyl-pyridin-3-ylmethyl)-3-(3,4-difluoro-phenyl)-2-[2-(2,6-dimethyl-piperidin-1-yl)-acetylamino]-propionamide]
1.6	CCC(C)[C@@H](N)C(=O)N[C@@H](Cc1ccc(Cl)cc1)C(=O)NCc1ccc(N)nc1 (stereo partly drawn) [Example 36, (R)-2-Amino-3-methyl-pentanoic acid [(S)-1-[(6-amino-pyridin-3-ylmethyl)-carbamoyl]-2-(4-chloro-phenyl)-ethyl]-amide]
4.3	Nc1ccc(CNC(=O)[C@H](Cc2ccc(F)c(F)c2)NC(=O)[C@H]2CCCN2Cc2ccccc2)cn1 [Example 140, (R)-1-Benzyl-pyrrolidine-2-carboxylic acid [(S)-1-[(6-amino-pyridin-3-ylmethyl)-carbamoyl]-2-(3,4-difluoro-phenyl)-ethyl]-amide]
3.1	Nc1ccc(CNC(=O)[C@H](Cc2ccc(Cl)c(Cl)c2)NC(=O)[C@H]2Cc3ccccc3CN2)cn1 [Example 64, (R)-1,2,3,4-Tetrahydro-isoquinoline-3-carboxylic acid [(S)-1-[(6-amino-pyridin-3-ylmethyl)-carbamoyl]-2-(3,4-dichloro-phenyl)-ethyl]-amide]
0.83	CC(C)N(C)[C@@H](C)C(=O)N[C@@H](Cc1cccc(C(F)(F)F)c1)C(=O)NCc1ccc(N)nc1 [Example 417, (S)—N-[(S)-1-[(6-Amino-pyridin-3-ylmethyl)-carbamoyl]-2-(3-trifluoromethyl-phenyl)-ethyl]-2-(isopropyl-methyl-amino)-propionamide]
6.4	CCCN1CCC[C@@H]1C(=O)N[C@@H](Cc1ccc(F)c(F)c1)C(=O)NCc1ccc(N)nc1 [Example 132, (R)-1-Propyl-pyrrolidine-2-carboxylic acid [(S)-1-[(6-amino-pyridin-3-ylmethyl)-carbamoyl]-2-(3,4-difluoro-phenyl)-ethyl]-amide]
6.5	Cc1cc(C)c(C(=O)N[C@@H](Cc2ccccc2Cl)C(=O)NCc2ccc(N)nc2)[nH]1 [Example 239, 3,5-Dimethyl-1H-pyrrole-2-carboxylic acid [(S)-1-[(6-amino-pyridin-3-ylmethyl)-carbamoyl]-2-(2-chloro-phenyl)-ethyl]-amide]
2.9	CCC(C)[C@@H](NC)C(=O)N[C@@H](Cc1ccc(F)c(F)c1)C(=O)NCc1ccc(N)nc1 (stereo partly drawn) [Example 43, (R)-3-Methyl-2-methylamino-pentanoic acid [(S)-1-[(6-amino-pyridin-3-ylmethyl)-carbamoyl]-2-(3,4-difluoro-phenyl)-ethyl]-amide]
5.3	CCC(C)[C@@H](N)C(=O)N[C@@H](Cc1ccc(F)cc1)C(=O)NCc1ccc(N)nc1 (stereo partly drawn) [Example 33, (R)-2-Amino-3-methyl-pentanoic acid [(S)-1-[(6-amino-pyridin-3-ylmethyl)-carbamoyl]-2-(4-fluoro-phenyl)-ethyl]-amide]

— patent US20100076015A1, “Aminopyridine Derivatives” (VANTIA LIMITED, priority 2008, published 2010)
